# pIC50: −log10 of the molar value.
# Molecular target: POLRMT (Homo sapiens, UniProt O00411)
# Test: homogeneous TR-FRET assay of mitochondrial transcription (inhibition of POLRMT)
# Format: biochemical
# Conditions: isoquinolinone compounds (Table 1)
# Outline: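 Recombinant POLRMT (7.5 nM) with TFB2M, TFAM and linearized LSP plasmid template, 500 μM NTPs, pH 7.5 Mg buffer; 60 min at 37° C. Reaction stopped with EDTA/high-salt buffer, 407 bp RNA transcript detected by hybridized ATTO647/Europium-cryptate probe pair; TR-FRET 665/620 nm ratio taken as transcript yield.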
# Sequence of POLRMT (O00411 42-1230): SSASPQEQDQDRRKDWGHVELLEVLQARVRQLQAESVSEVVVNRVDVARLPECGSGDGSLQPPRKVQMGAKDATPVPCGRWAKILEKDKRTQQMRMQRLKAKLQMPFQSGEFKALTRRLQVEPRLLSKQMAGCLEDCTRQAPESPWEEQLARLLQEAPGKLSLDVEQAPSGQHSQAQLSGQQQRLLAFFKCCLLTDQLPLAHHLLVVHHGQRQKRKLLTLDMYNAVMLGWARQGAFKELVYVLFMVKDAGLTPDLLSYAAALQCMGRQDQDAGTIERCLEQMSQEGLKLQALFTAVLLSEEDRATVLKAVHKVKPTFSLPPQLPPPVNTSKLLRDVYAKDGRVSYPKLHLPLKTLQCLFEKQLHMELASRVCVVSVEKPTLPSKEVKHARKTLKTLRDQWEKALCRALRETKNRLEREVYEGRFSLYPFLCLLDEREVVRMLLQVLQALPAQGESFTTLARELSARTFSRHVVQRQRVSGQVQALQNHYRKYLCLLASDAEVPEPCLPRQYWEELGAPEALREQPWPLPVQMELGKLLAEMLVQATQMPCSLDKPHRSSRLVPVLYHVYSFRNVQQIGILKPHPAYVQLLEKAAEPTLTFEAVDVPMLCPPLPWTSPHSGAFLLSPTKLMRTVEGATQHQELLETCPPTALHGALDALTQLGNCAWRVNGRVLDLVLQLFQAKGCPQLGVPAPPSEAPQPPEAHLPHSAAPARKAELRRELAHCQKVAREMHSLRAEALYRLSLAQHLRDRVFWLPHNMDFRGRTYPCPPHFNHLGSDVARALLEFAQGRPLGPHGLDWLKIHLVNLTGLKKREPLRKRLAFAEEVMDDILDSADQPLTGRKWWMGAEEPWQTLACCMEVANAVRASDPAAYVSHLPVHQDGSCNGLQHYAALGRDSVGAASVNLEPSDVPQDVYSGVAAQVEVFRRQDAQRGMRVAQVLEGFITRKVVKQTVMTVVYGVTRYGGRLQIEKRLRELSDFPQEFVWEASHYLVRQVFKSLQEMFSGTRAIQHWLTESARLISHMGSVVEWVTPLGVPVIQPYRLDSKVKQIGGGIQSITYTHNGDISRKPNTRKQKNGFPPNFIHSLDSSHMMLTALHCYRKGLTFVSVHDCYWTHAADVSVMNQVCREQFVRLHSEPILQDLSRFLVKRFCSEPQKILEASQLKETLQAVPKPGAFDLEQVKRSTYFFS
row,Structure (SMILES),pIC50
1,"Cc1cc(F)ccc1-c1c[nH]c(=O)c2cc(OCC#N)ccc12 [Example 83, 2-((4-(4-fluoro-2-methylphenyl)-1-oxo-1,2-dihydroisoquinolin-7-yl)oxy)acetonitrile]",6.40
2,"Cc1ccccc1-c1c[nH]c(=O)c2cc(C(=O)N(C)C)ccc12 [Example 23, N,N-dimethyl-1-oxo-4-(o-tolyl)-1,2-dihydroisoquinoline-7-carboxamide]",4.12
3,"C[C@@H]1CN(C(=O)[C@@H](C)Oc2ccc3c(-c4ccc(F)cc4Cl)c[nH]c(=O)c3c2)C[C@H](C)O1 [Example 100, 4-(2-chloro-4-fluorophenyl)-7-(((R)-1-((2S,6R)-2,6-dimethylmorpholino)-1-oxopropan-2-yl)oxy)isoquinolin-1(2H)-one]",7.00
4,"Cc1sccc1-c1c[nH]c(=O)c2cc(OCC(N)=O)ccc12 [Example 134, 2-((4-(2-methylthiophen-3-yl)-1-oxo-1,2-dihydroisoquinolin-7-yl)oxy)acetamide]",4.68
5,"CC(C#N)Oc1ccc2c(-c3ccc(F)cc3Cl)c[nH]c(=O)c2c1 (single isomer, unassigned) [Example 50, 2-((4-(2-chloro-4-fluorophenyl)-1-oxo-1,2-dihydroisoquinolin-7-yl)oxy)propanenitrile]",6.22
6,"CC(=O)N1CCCC(Oc2ccc3c(-c4ccccc4C)c[nH]c(=O)c3c2)C1 (stereo not shown) [Example 42, 7-((1-acetylpiperidin-3-yl)oxy)-4-(o-tolyl)isoquinolin-1(2H)-one]",5.15
7,"C[C@@H](Oc1ccc2c(-c3ccc(F)cc3Cl)c[nH]c(=O)c2c1)C(=O)N1CCOC[C@@H]1CO [Example 114, 4-(2-chloro-4-fluorophenyl)-7-(((R)-1-((S)-3-(hydroxymethyl)morpholino)-1-oxopropan-2-yl)oxy)isoquinolin-1(2H)-one]",6.70
8,"C[C@@H](Oc1ccc2c(-c3ccc(F)cc3Cl)c[nH]c(=O)c2c1)C(=O)N1CCC[C@H](C(N)=O)C1 [Example 82, (S)-1-((R)-2-((4-(2-chloro-4-fluorophenyl)-1-oxo-1,2-dihydroisoquinolin-7-yl)oxy)propanoyl)piperidine-3-carboxamide]",7.05
9,"Cc1ccccc1-c1c[nH]c(=O)c2cc(CC(C)C(=O)N3CCCCC3)ccc12 (stereo not shown) [Example 41, 7-(2-methyl-3-oxo-3-(piperidin-1-yl)propyl)-4-(o-tolyl)isoquinolin-1(2H)-one]",6.00
10,"Cc1ccccc1-c1c[nH]c(=O)c2cc(CO)ccc12 [Example 15, 7-(hydroxymethyl)-4-(o-tolyl)isoquinolin-1(2H)-one]",4.29
11,"C[C@@H](Oc1ccc2c(-c3ccc(F)cc3Cl)c[nH]c(=O)c2c1)C(=O)N1CCO[C@@H](C(=O)O)C1 [Example 120, (R)-4-((R)-2-((4-(2-chloro-4-fluorophenyl)-1-oxo-1,2-dihydroisoquinolin-7-yl)oxy)propanoyl)morpholine-2-carboxylic acid]",6.52
12,"Cc1ccccc1-c1c[nH]c(=O)c2cc(C(=O)N3CCCC3)ccc12 [Example 19, 7-(pyrrolidine-1-carbonyl)-4-(o-tolyl)isoquinolin-1(2H)-one]",< 4.00

# Same assay, conditions: quinolinone compounds (Table 2)
row,Structure (SMILES),pIC50
1,"CC(C)Oc1ccc2c(-c3ccc(F)cc3Cl)cc(=O)[nH]c2c1 [Example Q4, 4-(2-chloro-4-fluorophenyl)-7-isopropoxyquinolin-2(1H)-one]",4.64

# Source: US20240391875A1, “ISOQUINOLINONES AND QUINOLINONES AS MODULATORS OF POLRMT” (Pretzel Therapeutics, Inc., priority 2021, published 2024)
